Source: patent US20140322360A1, “METHOD AND DEVICE FOR ATTRACTING BLOOD-SUCKING ARTHROPODS” (BIOGENTS AG, priority 2011, published 2014)

Tested on: female mosquitoes
Test: Y-olfactometer test of attractiveness (activation and orientation of mosquitoes)
Assay type: in vivo
Conditions: A0, B0, C0 together, regardless of the CO2 concentration used
Text: Olfactometer tests are particularly useful during product development. They are used to filter out the most promising candidate substances from a number of interesting attractants or repellents quickly and cost-effectively. In particular, the olfactometer 60 has the form of a “Y”. A cage with piercing joyful female mosquitoes is connected to the lower end 62 of the “Y” of the air conditioned tubular system of the olfactometer 60. The two arms 64 and 65 of the “Y” each include the control chamber 70 and test chamber 72. Air L flows through both chambers 70, 72 and is then combined in the base leg 66 of the “Y”. During the phase when the stimulus is given, the test mosquitoes can fly into the direction of movement B into the olfactometer 60 and choose between the test chamber 72 with air containing the stimulus and the control chamber 70 containing clean air. Air L flows through the olfactometer 60 in the direction opposite to the direction of movement B of the mosquitoes, the air L being entrained with the attractant from the test chamber 72. Firstly, the activation or mobilization of the test mosquitoes is determined. This refers to a non-directional fly away of the mosquitoes when a stimulus is given. […] Then the orientation is further determined by counting the number of mosquitoes in the test chamber 72. […]

For O=C=O [CO2], the “directional orientation Y” value was “about 50%” and the “undirected activation X” value was “about 83%”.
